For five molecules, IC50 results are on record in patent publication US7868188B2, “5-heteroaryl thiazoles and their use as PI3K inhibitors” (AstraZeneca AB, priority 2004, dated 2011).

Holding throughout (assay): PI 3-Kinase Assay (Additional Pharmacological Analysis, AlphaScreen)
Holding throughout (format): biochemical
Holding throughout (settings): 40 μM ATP

One experiment addresses T1, p110α Type Ia human PI3K (Homo sapiens, UniProt P42336).
T1 construct: full length DNA of each of the p110α, p110β and p110δ Type Ia human PI3K p110 isoforms; 6-His; made in house; host or cells: baculovirus expression system (Sf9 is named only for PI3Kγ)
The source says: (§1) In order to assess the ability of compounds to inhibit PI3K enzymes, especially PI3Kγ, a novel PI3K assay technology was established. The PI3K enzyme reaction product phosphatidylinositol 3,4,5-trisphosphate (PtdIns(3,4,5)P3) is detected using the pleckstrin homology (PH) domain from general receptor for phosphoinositides (GRP1) as probe. Thus, complexes form between GRP1 PH and PtdIns(3,4,5)P3, and if the lipid is biotinylated and the PH domain tagged with glutathion transferase (GST), the complexes can be detected using AlphaScreen® (PerkinElmer) technology. The signal generated by the complex between GRP1 PH-GST and PtdIns(3,4,5)P3-biotin can be quenched by introduction of non-biotinylated PtdIns(3,4,5)P3, forming the basis for an assay measuring the production of PtdIns(3,4,5)P3 by PI3K enzyme activity.
(§2) Biotinylated PtdIns(3,4,5)P3 was detected using AlphaScreen® technology. Detection was in 384-well microplates in 50 mM Hepes, pH7.4, 50 mM NaCl and 0.1% BSA. The biotinylated, short chain (diC8) phosphoinositide and GRP1 PH-GST were added at 15 nM and 3.75 nM, respectively. Donor and acceptor AlphaScreen® beads (Perkin Elmer) were added at 5 μg/ml to a final volume of 50 μl. Plates were incubated in the dark for 5 hours to ensure binding was complete and then read in an AlphaQuest AD instrument (Perkin Elmer) using standard settings.
(§3) The GRP1 PH domain (amino acids 263 to 380) was PCR cloned from a mouse brain cDNA library (Stratagene), expressed in E. coli and purified using standard protocols. Lipids were from Echelon Research Laboratories, Salt Lake City, Utah, or Cell Signals Inc., Lexington, Ky., USA.
(§4) The assay used AlphaScreen® based detection of PI(3,4,5)P3 (Gray et al., Anal. Biochem., 2003, 313, 234-245) to determine the ability of test compounds to inhibit phosphorylation of recombinant PI3Ks of PI(4,5)P2.
(§5) DNA fragments encoding human PI3K catalytic and regulatory subunits were isolated from cDNA libraries using standard molecular biology and PCR cloning techniques. The selected DNA fragments were used to generate baculovirus expression vectors. In particular, full length DNA of each of the p110α, p110β and p110δ Type Ia human PI3K p110 isoforms (EMBL Accession Nos. HSU79143, S67334, Y10055 for p110α, p110β and p110δ, respectively) were sub-cloned into a pDEST10 vector (Invitrogen Limited, Fountain Drive, Paisley, UK). The vector is a Gateway-adapted version of Fastbac1 containing a 6-His epitope tag. The full length human p85 (regulatory subunit (EMBL Accession No. HSP13KIN) was also sub-cloned into pFastBac1 vector containing a 6-His epitope tag. The Type Ia p110 constructs were co-expressed with the p85α regulatory subunit. Residues 2-1102 of human PI3Kγ were inserted between the BamHI and Not1 cloning sites of the […] HTb vector for expression of His(6)-tagged (N-terminal), full length PI3Kγ in baculo virus infected Sf9 insect cells. Following expression in the baculovirus system using standard baculovirus expression techniques, expressed proteins were purified using standard His epitope tag purification techniques.
(§6) Standard enzyme reactions were performed in 50 mM Hepes, pH7.4, 50 mM NaCl, […], 5 mM DTT and 0.05% CHAPS containing 40 μM ATP, 40 μM diC8 PtdIns(4,5)P2 and 2-20 ng of Type 1 PI3K in a total volume of 20 μl. The reaction was stopped by the addition of 10 μl of EDTA/diC6 PtdIns(3,4,5)P3-biotin followed by 20 μl of GRP1 PH-GST/AlphaScreen beads both in 50 mM Hepes, pH7.4, 50 mM NaCl and 0.1% BSA. Final concentrations were 50 mM EDTA, 15 nM biotinylated diC6PtdIns(3,4,5)P3, 3.75 nM GRP1 PH-GST and 5 μg/ml of AlphaScreen beads. Inhibitors were added to dry wells in […] of 100% DMSO giving a final DMSO concentration of 2.5% in the assay. Control wells contained 2.5% DMSO in the absence of test compound. Inhibition of PI3K by test compounds was expressed as an IC50 value.

For another experiment, the target named is T2, p110β Type Ia human PI3K (Homo sapiens, UniProt P42338).
T2 construct: full length DNA of each of the p110α, p110β and p110δ Type Ia human PI3K p110 isoforms; 6-His; made in house; host or cells: baculovirus expression system (Sf9 is named only for PI3Kγ)
T2 sequence (P42338 whole entry, canonical isoform): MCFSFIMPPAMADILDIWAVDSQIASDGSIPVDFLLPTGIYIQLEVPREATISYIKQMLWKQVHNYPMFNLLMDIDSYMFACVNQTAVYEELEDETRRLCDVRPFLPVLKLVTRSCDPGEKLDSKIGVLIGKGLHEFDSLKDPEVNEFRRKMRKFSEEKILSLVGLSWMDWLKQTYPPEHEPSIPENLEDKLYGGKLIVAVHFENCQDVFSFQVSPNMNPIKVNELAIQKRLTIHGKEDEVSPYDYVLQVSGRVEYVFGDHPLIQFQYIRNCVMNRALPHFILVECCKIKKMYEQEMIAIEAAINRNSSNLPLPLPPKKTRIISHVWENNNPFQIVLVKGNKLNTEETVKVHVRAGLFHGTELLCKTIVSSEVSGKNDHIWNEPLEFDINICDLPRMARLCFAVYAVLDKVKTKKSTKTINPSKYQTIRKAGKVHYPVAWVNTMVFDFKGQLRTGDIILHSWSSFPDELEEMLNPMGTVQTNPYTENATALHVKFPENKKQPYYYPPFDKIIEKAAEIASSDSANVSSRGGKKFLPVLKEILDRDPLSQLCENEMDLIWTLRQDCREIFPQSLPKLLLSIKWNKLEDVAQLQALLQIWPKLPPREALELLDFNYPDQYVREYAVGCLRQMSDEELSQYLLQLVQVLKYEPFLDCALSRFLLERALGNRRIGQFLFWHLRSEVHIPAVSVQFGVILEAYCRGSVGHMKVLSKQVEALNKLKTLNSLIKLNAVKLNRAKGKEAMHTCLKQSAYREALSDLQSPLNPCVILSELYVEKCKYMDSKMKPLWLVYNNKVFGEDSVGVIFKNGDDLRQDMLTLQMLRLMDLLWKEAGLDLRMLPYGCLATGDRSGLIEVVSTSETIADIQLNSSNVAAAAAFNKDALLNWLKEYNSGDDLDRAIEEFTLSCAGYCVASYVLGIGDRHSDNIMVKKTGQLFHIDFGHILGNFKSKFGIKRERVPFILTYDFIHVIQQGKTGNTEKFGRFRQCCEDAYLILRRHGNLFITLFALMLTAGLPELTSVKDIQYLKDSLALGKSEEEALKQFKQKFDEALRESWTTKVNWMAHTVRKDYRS
T2 sequence (P27986 whole entry partner, canonical isoform): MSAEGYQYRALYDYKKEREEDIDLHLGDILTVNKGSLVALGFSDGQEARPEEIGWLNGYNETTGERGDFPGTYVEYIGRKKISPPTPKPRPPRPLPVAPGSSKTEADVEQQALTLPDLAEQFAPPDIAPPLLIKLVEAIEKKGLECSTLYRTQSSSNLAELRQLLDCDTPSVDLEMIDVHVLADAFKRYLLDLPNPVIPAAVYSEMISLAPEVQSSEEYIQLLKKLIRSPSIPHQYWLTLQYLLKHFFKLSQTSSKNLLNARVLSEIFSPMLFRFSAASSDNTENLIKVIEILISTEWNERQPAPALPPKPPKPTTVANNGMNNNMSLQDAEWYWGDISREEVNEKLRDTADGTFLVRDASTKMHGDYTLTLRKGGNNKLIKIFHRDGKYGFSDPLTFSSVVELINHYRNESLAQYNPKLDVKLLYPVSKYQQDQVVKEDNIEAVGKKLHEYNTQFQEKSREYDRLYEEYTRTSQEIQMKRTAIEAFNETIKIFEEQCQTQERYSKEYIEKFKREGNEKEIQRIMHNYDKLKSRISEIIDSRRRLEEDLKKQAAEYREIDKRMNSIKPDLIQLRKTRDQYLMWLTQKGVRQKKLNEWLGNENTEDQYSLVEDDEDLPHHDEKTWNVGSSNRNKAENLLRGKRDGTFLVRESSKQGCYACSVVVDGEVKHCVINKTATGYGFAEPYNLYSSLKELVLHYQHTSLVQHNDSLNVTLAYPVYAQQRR
From the text: as §1, §2, §3, §4, §5, §6

A further experiment addresses T3, p110γ Type Ib human PI3K (Homo sapiens, UniProt P48736).
T3 construct: Residues 2-1102 of human PI3Kγ were inserted between the BamHI and Not1 cloning sites; His(6) (N); made in house; host or cells: baculovirus-infected Sf9 insect cells
From the text: as §1, §2, §3, §4, §5, §6

For the next experiment, the target named is T4, p110δ Type Ia human PI3K (Homo sapiens, UniProt O00329).
T4 construct: full length DNA of each of the p110α, p110β and p110δ Type Ia human PI3K p110 isoforms; 6-His; made in house; host or cells: baculovirus expression system (Sf9 is named only for PI3Kγ)
T4 sequence (O00329 whole entry, canonical isoform): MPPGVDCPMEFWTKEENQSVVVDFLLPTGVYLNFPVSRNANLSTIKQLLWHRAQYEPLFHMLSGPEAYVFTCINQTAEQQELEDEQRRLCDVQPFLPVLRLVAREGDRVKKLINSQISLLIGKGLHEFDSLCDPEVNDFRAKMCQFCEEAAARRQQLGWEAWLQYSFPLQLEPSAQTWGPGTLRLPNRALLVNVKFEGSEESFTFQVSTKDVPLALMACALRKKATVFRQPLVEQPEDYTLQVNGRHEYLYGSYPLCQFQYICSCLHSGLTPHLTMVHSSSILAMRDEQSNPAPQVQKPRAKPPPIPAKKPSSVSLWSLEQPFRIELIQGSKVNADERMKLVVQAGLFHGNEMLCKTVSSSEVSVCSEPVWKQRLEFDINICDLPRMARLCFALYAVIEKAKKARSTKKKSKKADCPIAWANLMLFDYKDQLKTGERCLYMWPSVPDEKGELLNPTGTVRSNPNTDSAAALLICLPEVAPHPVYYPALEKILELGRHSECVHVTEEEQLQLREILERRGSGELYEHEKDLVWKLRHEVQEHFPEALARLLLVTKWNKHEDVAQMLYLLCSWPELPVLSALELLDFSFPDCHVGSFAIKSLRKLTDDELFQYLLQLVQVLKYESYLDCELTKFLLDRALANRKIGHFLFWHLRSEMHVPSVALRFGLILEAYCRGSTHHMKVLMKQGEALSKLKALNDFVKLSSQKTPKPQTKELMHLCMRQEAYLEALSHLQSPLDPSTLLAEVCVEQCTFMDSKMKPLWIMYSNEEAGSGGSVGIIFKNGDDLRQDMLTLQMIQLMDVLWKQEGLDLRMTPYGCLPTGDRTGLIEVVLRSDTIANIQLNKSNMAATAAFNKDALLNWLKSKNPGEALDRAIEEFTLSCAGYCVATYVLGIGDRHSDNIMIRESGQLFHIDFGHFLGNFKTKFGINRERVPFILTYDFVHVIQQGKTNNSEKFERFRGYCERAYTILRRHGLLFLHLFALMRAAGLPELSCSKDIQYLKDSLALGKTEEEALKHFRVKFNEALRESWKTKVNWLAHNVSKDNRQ
T4 sequence (P27986 whole entry partner, canonical isoform): as the sequence (P27986 whole entry partner, canonical isoform) above
From the text: as §1, §2, §3, §4, §5, §6

T1 sequence (P42336 whole entry, canonical isoform): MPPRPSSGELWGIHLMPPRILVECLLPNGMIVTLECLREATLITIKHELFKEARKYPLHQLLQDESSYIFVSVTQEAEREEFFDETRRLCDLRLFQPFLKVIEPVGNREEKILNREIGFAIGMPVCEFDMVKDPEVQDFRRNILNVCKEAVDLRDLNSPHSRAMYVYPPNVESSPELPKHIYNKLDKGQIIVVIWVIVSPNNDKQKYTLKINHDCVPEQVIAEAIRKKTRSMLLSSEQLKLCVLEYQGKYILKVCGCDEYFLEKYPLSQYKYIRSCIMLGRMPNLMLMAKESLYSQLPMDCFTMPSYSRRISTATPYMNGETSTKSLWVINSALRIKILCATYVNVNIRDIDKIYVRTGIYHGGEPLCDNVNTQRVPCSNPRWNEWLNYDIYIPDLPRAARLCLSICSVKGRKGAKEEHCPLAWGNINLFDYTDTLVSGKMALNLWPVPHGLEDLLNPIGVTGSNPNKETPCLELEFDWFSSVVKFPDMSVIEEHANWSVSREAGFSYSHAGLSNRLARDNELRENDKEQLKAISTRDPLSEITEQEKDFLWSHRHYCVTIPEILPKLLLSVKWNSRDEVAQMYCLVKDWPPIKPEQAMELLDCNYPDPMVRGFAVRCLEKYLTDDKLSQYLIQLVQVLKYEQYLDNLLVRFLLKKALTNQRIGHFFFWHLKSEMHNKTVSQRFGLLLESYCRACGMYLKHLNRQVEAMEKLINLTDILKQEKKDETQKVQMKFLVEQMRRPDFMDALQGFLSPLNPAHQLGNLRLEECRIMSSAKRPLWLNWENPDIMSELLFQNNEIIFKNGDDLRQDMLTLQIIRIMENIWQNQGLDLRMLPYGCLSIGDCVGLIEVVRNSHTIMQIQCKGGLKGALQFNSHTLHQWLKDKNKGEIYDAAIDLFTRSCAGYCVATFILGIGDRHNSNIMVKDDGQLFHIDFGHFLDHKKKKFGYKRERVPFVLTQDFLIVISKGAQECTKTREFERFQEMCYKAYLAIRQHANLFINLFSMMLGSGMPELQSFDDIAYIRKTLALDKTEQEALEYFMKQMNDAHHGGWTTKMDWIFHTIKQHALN
T1 sequence (P27986 whole entry partner, canonical isoform): as the sequence (P27986 whole entry partner, canonical isoform) above
T3 sequence (P48736 2-1102): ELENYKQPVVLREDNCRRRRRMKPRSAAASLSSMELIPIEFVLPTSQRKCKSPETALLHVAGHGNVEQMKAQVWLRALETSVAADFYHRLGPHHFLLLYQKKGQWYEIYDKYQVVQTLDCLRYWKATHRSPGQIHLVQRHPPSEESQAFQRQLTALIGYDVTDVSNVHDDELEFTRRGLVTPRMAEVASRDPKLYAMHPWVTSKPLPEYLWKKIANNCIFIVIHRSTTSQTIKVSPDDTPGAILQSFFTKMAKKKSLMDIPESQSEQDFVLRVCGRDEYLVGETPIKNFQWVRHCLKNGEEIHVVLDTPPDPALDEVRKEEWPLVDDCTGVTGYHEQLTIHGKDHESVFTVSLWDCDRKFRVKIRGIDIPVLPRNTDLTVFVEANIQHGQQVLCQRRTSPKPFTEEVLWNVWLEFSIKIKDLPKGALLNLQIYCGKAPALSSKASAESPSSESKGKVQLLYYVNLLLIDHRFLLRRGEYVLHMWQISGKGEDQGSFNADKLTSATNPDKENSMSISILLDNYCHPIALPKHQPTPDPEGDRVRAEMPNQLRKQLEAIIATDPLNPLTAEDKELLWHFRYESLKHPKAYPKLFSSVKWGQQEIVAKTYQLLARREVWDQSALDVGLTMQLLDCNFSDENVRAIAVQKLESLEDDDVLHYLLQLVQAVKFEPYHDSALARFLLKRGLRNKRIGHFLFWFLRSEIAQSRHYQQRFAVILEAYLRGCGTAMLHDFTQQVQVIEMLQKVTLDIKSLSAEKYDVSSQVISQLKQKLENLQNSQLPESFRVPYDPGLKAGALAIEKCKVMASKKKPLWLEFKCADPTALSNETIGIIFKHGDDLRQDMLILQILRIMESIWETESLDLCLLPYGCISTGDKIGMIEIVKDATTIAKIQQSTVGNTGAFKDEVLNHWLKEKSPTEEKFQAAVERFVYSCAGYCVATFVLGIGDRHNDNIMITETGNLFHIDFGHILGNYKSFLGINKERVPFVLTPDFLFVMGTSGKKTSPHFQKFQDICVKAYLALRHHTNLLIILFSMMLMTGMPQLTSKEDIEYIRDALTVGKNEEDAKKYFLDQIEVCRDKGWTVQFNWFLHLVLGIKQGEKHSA

Regarding `CC(=O)Nc1nc(C)c(-c2cnc(Cl)c(S(C)(=O)=O)c2)s1` [Example 7, N-[5-(6-Chloro-5-methylsulfonyl-pyridin-3-yl)-4-methyl-1,3-thiazol-2-yl]acetamide], the IC50 at p110α Type Ia human PI3K stood at 0.42 µM; on p110β Type Ia human PI3K, 0.74 µM; against p110γ Type Ib human PI3K it was 0.22 µM; against p110δ Type Ia human PI3K, 0.15 µM.

Consider `CC(=O)Nc1nc(C)c(-c2cncc(S(=O)(=O)NCCO)c2)s1` [Example 8, N-{5-[5-(2-Hydroxyethylaminosulfonyl)pyridin-3-yl]-4-methyl-1,3-thiazol-2-yl}acetamide], for which the IC50 stood at 0.57 µM on p110α Type Ia human PI3K, 1.89 µM at p110β Type Ia human PI3K, 0.4 µM on p110γ Type Ib human PI3K and 0.2 µM at p110δ Type Ia human PI3K.

As for `CC(=O)Nc1nc(C)c(-c2cnc(Cl)c(NS(=O)(=O)CCCN3CCN(C)CC3)c2)s1` [Example 31, N-(5-{6-Chloro-5-[3-(4-methylpiperazin-1-yl)propylsulfonylamino]pyridin-3-yl}-4-methyl-1,3-thiazol-2-yl)acetamide bis(trifluoroacetate)], the IC50 against p110α Type Ia human PI3K was determined as 0.05 µM; at p110β Type Ia human PI3K, 0.25 µM; against p110γ Type Ib human PI3K, 0.16 µM; against p110δ Type Ia human PI3K it was 0.01 µM.

Turning to `CC(=O)Nc1nc(C)c(-c2cnc(Cl)c(NCc3ccccc3)c2)s1` [Example 46, N-{5-[5-(Benzylamino)-6-chloropyridin-3-yl]-4-methyl-1,3-thiazol-2-yl}acetamide], the IC50 against p110α Type Ia human PI3K is 0.28 µM; against p110β Type Ia human PI3K, 0.63 µM; at p110γ Type Ib human PI3K it was 0.12 µM; against p110δ Type Ia human PI3K it was 0.2 µM.

As for `COCC(=O)Nc1nc(C)c(-c2cnc(Cl)c(NS(=O)(=O)c3ccccc3)c2)s1` [Example 56, N-[5-(5-Benzenesulfonylamino-6-chloropyridin-3-yl)-4-methyl-1,3-thiazol-2-yl]-2-methoxyacetamide], the IC50 is 0.23 µM on p110α Type Ia human PI3K, 0.12 µM against p110β Type Ia human PI3K, 0.26 µM against p110γ Type Ib human PI3K and under 0.1 µM against p110δ Type Ia human PI3K.

Usually IC50 stands for the concentration that inhibits the measured activity by half. A lower IC50 goes with inhibition by little substance.
